Measurements reported in patent publication US20080051418A1, “Arylalkanoic Acid Derivative” (priority 2004, published 2008).

Row | Structure (SMILES) | melting point [°C]
1 | CC(C)Oc1cc(CCCOc2c(CC(=O)O)ccc3ccccc23)n(Cc2ccc(Cl)cc2Cl)n1 [Example 87, (1-{3-[1-(2,4-dichlorobenzyl)-3-isopropoxy-1H-pyrazol-5-yl]propoxy}-2-naphthyl)acetic acid] | 96 to 98
2 | CCc1cccc(CC(=O)O)c1OCCn1cc(CCOc2ncc(C(F)(F)F)cc2Cl)c(OC(C)C)n1 [Example 188, (2-{2-[4-(2-{[3-chloro-5-(trifluoromethyl)pyridin-2-yl]oxy}ethyl)-3-isopropoxy-1H-pyrazol-1-yl]ethoxy}-3-ethylphenyl)acetic acid] | 76.5 to 77.5
3 | CC(C)c1ncc(CCCOc2nn(C)cc2CC(=O)O)c(Oc2ccc(Cl)cc2Cl)n1 [Example 128, (3-{3-[4-(2,4-dichlorophenoxy)-2-isopropylpyrimidin-5-yl]propoxy}-1-methyl-1H-pyrazol-4-yl)acetic acid] | 107 to 108
4 | CC(C)n1nc(COc2ccccc2CC(=O)O)cc1OCc1ccc2ccccc2n1 [Example 55, (2-{[1-isopropyl-5-(quinolin-2-ylmethoxy)-1H-pyrazol-3-yl]methoxy}phenyl)acetic acid] | 116 to 117
5 | CCOc1nn(Cc2ccc(Cl)cc2Cl)cc1CCCOc1nn(-c2ccccc2)cc1CCC(=O)O [Example 193, 3-(3-{3-[1-(2,4-dichlorobenzyl)-3-ethoxy-1H-pyrazol-4-yl]propoxy}-1-phenyl-1H-pyrazol-4-yl)propanoic acid] | 114 to 118
6 | CC(C)Oc1cc(CCCOc2nn(C)cc2CC(=O)O)n(Cc2ccc(Cl)cc2Cl)n1 [Example 32, (3-{3-[1-(2,4-dichlorobenzyl)-3-isopropoxy-1H-pyrazol-5-yl]propoxy}-1-methyl-1H-pyrazol-4-yl)acetic acid] | 96 to 97
7 | CCc1cccc(CC(=O)O)c1OCCCc1cc(OC(C)C)nn1Cc1ccc(Cl)cc1Cl [Example 29, (2-{3-[1-(2,4-dichlorobenzyl)-3-isopropoxy-1H-pyrazol-5-yl]propoxy}-3-ethylphenyl)acetic acid] | 98 to 99
8 | CCOCc1cc(COc2cc(CCC(=O)O)n(-c3ccccc3)n2)cc(Oc2ncc(C(F)(F)F)cc2Cl)c1 [Example 199, 3-(3-{[3-{[3-chloro-5-(trifluoromethyl)pyridin-2-yl]oxy}-5-(ethoxymethyl)benzyl]oxy}-1-phenyl-1H-pyrazol-5-yl)propanoic acid] | 124 to 128
9 | CC(C)c1nc(CCCOc2ncccc2CC(=O)O)c(Cc2ccc(Cl)cc2Cl)s1 [Example 53, (2-{3-[5-(2,4-dichlorobenzyl)-2-isopropyl-1,3-thiazol-4-yl]propoxy}pyridin-3-yl)acetic acid] | 106 to 107
10 | CCOc1cc(COc2cc(CCC(=O)O)n(-c3ccccc3)n2)cc(COc2ccc(Cl)cc2Cl)c1 [Example 204, 3-[3-({3-[(2,4-dichlorophenoxy)methyl]-5-ethoxybenzyl}oxy)-1-phenyl-1H-pyrazol-5-yl]propanoic acid] | 151.5 to 152
11 | COCCOc1cc(Oc2ccc(C(F)(F)F)cn2)ccc1CCCOc1cc(CCC(=O)O)n(C)n1 [Example 154, 3-{3-[3-(2-(2-methoxyethoxy)-4-{[5-(trifluoromethyl)pyridin-2-yl]oxy}phenyl)propoxy]-1-methyl-1H-pyrazol-5-yl}propanoic acid] | 109.5 to 110.5
12 | CC(C)Oc1ccc(CCCOc2cc(CCC(=O)O)n(C)n2)c(OCc2ccc(C(F)(F)F)cc2)c1 [Example 167, 3-{3-[3-(4-isopropoxy-2-{[4-(trifluoromethyl)benzyl]oxy}phenyl)propoxy]-1-methyl-1H-pyrazol-5-yl}propanoic acid] | 88 to 89
13 | CCc1cccc(CC(=O)O)c1OCCCc1cn(Cc2nc(-c3ccccc3)oc2C)nc1C(C)C [Example 54, [3-ethyl-2-(3-{3-isopropyl-1-[(5-methyl-2-phenyl-1,3-oxazol-4-yl)methyl]-1H-pyrazol-4-yl}propoxy)phenyl]acetic acid] | 94 to 95
14 | CCn1cc(CC(=O)O)c(OCCCc2ccc(Cc3ccccn3)cc2OC(C)C)n1 [Example 126, (3-{3-[2-isopropoxy-4-(pyridin-2-ylmethyl)phenyl]propoxy}-1-ethyl-1H-pyrazol-4-yl)acetic acid] | 97 to 98
15 | CC(C)Oc1cc(CCCOc2ncccc2CC(=O)O)n(Cc2ccc(Cl)cc2OC(C)C)n1 [Example 94, (2-{3-[1-(4-chloro-2-isopropoxybenzyl)-3-isopropoxy-1H-pyrazol-5-yl]propoxy}pyridin-3-yl)acetic acid] | 82 to 84
16 | CCCOc1cc(CCCOc2c(CC(=O)O)cccc2OC)n(Cc2ccc3ccccc3n2)n1 [Example 11, (3-methoxy-2-{3-[3-propoxy-1-(quinolin-2-ylmethyl)-1H-pyrazol-5-yl]propoxy}phenyl)acetic acid] | 97 to 98
17 | CC(C)Oc1cc(COc2cc(CCC(=O)O)n(-c3ccccc3)n2)cc(COc2ccc(Cl)cc2Cl)c1 [Example 195, 3-[3-({3-[(2,4-dichlorophenoxy)methyl]-5-isopropoxybenzyl}oxy)-1-phenyl-1H-pyrazol-5-yl]propanoic acid] | 108 to 110

Row | Structure (SMILES) | melting point [°C]
18 | CCCn1nc(OCc2ccc3ccccc3n2)cc1COc1c(CC)cccc1CC(=O)O [Example 5, (3-ethyl-2-{[1-propyl-3-(quinolin-2-ylmethoxy)-1H-pyrazol-5-yl]methoxy}phenyl)acetic acid] | 118 to 119
19 | CC(C)Oc1ccc(CCCCOc2cc(CCC(=O)O)n(C(C)C)n2)c(Oc2ncc(C(F)(F)F)cc2Cl)c1 [Example 159, 3-{3-[4-(2-{[3-chloro-5-(trifluoromethyl)pyridin-2-yl]oxy}-4-isopropoxyphenyl)butoxy]-1-isopropyl-1H-pyrazol-5-yl}propanoic acid] | 99.5 to 100.5
20 | O=C(O)CCc1cc(OCc2cc(COc3ccc(Cl)cc3Cl)cc(OCc3ccccc3)c2)nn1-c1ccccc1 [Example 198, 3-[3-({3-(benzyloxy)-5-[(2,4-dichlorophenoxy)methyl]benzyl}oxy)-1-phenyl-1H-pyrazol-5-yl]propanoic acid] | 126 to 130
21 | COCOc1cc(CCCOc2ncccc2CC(=O)O)n(Cc2ccc(Cl)cc2Cl)n1 [Example 207, (2-{3-[1-(2,4-dichlorobenzyl)-3-(methoxymethoxy)-1H-pyrazol-5-yl]propoxy}pyridin-3-yl)acetic acid] | 101 to 102
22 | CCOc1cc(C(=O)c2ccccn2)ccc1OCCOc1c(CC(=O)O)cccc1OC [Example 123, (2-{2-[2-ethoxy-4-(pyridin-2-ylcarbonyl)phenoxy]ethoxy}-3-methoxyphenyl)acetic acid] | 184 to 186
23 | CC(C)Oc1cc(CCCOc2cc(CCC(=O)O)n(-c3ccccc3)n2)n(Cc2ccc(Cl)cc2Cl)n1 [Example 192, 3-(3-{3-[1-(2,4-dichlorobenzyl)-3-isopropoxy-1H-pyrazol-5-yl]propoxy}-1-phenyl-1H-pyrazol-5-yl)propanoic acid] | 145.5 to 147.5
24 | CC(C)Oc1ccc(CCCOc2cc(CCC(=O)O)n(-c3ccccc3)n2)c(Oc2ccc(Cl)cc2Cl)n1 [Example 171, 3-(3-{3-[2-(2,4-dichlorophenoxy)-6-isopropoxypyridin-3-yl]propoxy}-1-phenyl-1H-pyrazol-5-yl)propanoic acid] | 60 to 62
25 | CCc1cccc(CC(=O)O)c1OCCCn1cc(C(=O)NCc2ccc(C(F)(F)F)cc2)c(OC(C)C)n1 [Example 186, (3-ethyl-2-{3-[3-isopropoxy-4-({[4-(trifluoromethyl)benzyl]amino}carbonyl)-1H-pyrazol-1-yl]propoxy}phenyl)acetic acid] | 107.5 to 108.5
26 | CCOc1cc(Cc2ccccn2)ccc1CCCOc1c(CC(=O)O)cccc1OC [Example 125, (2-{3-[2-ethoxy-4-(pyridin-2-ylmethyl)phenyl]propoxy}-3-methoxyphenyl)acetic acid] | 97.5 to 98.5
27 | CC(C)Oc1ccc(CCCOc2nn(Cc3ccccc3)cc2CC(=O)O)c(OCc2ccc(Cl)cc2Cl)c1 [Example 175, [1-benzyl-3-(3-{2-[(2,4-dichlorobenzyl)oxy]-4-isopropoxyphenyl}propoxy)-1H-pyrazol-4-yl]acetic acid] | 103 to 104
28 | CC(C)Oc1ccc(CCCOc2cc(CCC(=O)O)n(C)n2)c(OCc2ccc(Cl)cc2Cl)c1 [Example 161, 3-[3-(3-{2-[(2,4-dichlorobenzyl)oxy]-4-isopropoxyphenyl}propoxy) 1-methyl-1H-pyrazol-5-yl]propanoic acid] | 125 to 127
29 | CCOc1ccc(CCCOc2nn(C)cc2CC(=O)O)c(Oc2ccc(Cl)cc2Cl)n1 [Example 135, (3-{3-[2-(2,4-dichlorophenoxy)-6-ethoxypyridin-3-yl]propoxy}-1-methyl-1H-pyrazol-4-yl)acetic acid] | 81 to 83
30 | COc1cccc(CC(=O)O)c1OCc1cc(OCc2ccc3ccccc3n2)n(C(C)C)n1 [Example 9, (2-{[1-isopropyl-5-(quinolin-2-ylmethoxy)-1H-pyrazol-3-yl]methoxy}-3-methoxyphenyl)acetic acid] | 84 to 85
31 | COc1cccc(CC(=O)O)c1OCc1cc(OC(C)C)nn1Cc1ccc2ccccc2n1 [Example 8, (2-{[3-isopropoxy-1-(quinolin-2-ylmethyl)-1H-pyrazol-5-yl]methoxy}-3-methoxyphenyl)acetic acid] | 129 to 130
32 | CCn1nc(OCCCc2ccc(OC(C)C)cc2OCc2ccc(C(F)(F)F)cc2)cc1CCC(=O)O [Example 168, 3-{1-ethyl-3-[3-(4-isopropoxy-2-{[4-(trifluoromethyl)benzyl]oxy}phenyl)propoxy]-1H-pyrazol-5-yl}propanoic acid] | 75 to 76
33 | CC(C)Oc1cc(Oc2ccc(C(F)(F)F)cn2)ccc1CCCOc1cc(CCC(=O)O)n(C)n1 [Example 152, 3-{3-[3-(2-isopropoxy-4-{[5-(trifluoromethyl)pyridin-2-yl]oxy}phenyl)propoxy]-1-methyl-1H-pyrazol-5-yl}propanoic acid] | 128 to 130
34 | COCCOc1ccc(CCCOc2cc(CCC(=O)O)n(C)n2)c(OCc2ccc(Cl)cc2Cl)c1 [Example 164, 3-(3-{3-[2-[(2,4-dichlorobenzyl)oxy]-4-(2-methoxyethoxy)phenyl]propoxy}-1-methyl-1H-pyrazol-5-yl)propanoic acid] | 128.5 to 129.5
